One assay has as its target T1, 5-lipoxygenase (Homo sapiens, UniProt P09917).
T1 construct: gene ALOX5
T1 sequence (P09917 1-674): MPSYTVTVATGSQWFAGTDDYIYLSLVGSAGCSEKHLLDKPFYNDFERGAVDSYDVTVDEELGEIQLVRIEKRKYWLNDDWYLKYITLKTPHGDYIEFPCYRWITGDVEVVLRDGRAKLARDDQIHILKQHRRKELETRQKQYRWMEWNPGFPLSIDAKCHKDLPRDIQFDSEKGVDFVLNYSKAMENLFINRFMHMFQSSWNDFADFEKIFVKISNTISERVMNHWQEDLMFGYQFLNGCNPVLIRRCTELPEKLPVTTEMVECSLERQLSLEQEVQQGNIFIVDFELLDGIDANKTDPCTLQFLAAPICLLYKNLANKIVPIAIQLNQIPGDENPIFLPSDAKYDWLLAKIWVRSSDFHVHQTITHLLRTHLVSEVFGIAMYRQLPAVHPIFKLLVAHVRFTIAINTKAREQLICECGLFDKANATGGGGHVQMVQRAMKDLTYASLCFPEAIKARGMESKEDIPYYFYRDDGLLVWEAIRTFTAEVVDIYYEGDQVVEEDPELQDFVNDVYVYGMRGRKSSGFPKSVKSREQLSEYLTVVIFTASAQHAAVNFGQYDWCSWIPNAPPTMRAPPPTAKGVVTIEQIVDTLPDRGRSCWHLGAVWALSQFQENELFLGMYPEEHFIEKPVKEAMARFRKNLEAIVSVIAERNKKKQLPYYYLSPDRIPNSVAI
Briefly: spectrophotometric enzyme assay at […] nm, linoleic acid substrate, human recombinant enzyme. Type of assay: biochemical. The following applies: read-out: Anti-inflammatory assay 5-LOX, IC50.

For the next assay, the target named is T2, acetylcholinesterase (Electrophorus electricus, UniProt O42275).
T2 construct: gene ache; Type-VI-S, EC 3.1.1.7
Put plainly: Ellman spectrophotometric assay at […] nm, electric eel enzyme. Type of assay: biochemical. The following applies: read-out: Antiacetylcholinesterase assay, IC50. On the technique in general: In Ellman's method for cholinesterases, released thiocholine reacts with DTNB.

T2 sequence (O42275 24-633): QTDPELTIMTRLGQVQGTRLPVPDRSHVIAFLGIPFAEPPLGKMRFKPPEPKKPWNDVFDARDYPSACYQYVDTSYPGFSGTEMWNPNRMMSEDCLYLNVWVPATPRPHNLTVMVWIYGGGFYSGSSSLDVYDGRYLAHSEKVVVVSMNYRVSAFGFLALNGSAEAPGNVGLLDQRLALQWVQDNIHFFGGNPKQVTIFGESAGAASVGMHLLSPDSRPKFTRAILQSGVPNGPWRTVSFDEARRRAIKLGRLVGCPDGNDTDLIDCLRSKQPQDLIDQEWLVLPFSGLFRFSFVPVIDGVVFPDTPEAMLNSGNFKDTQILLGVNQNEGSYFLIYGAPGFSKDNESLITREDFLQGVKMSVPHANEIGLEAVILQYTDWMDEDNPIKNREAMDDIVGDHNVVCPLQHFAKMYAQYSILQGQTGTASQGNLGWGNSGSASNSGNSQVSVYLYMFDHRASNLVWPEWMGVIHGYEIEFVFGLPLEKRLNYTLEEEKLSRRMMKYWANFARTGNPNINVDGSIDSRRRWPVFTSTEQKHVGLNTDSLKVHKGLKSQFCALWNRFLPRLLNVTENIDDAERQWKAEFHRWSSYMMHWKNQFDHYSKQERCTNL

As for `COc1cc2ccc(=O)oc2cc1O` [SC, 7-hydroxy-6 methoxycoumarin], the IC50 (commonly the concentration at which inhibition is half-maximal) at 5-lipoxygenase worked out at 1.76 ± 0.01 µM; on acetylcholinesterase it was 270 ± 0.02 µM.

The values are drawn from publication PMC3708431 (Evidence-based Complementary and Alternative Medicine : eCAM, 2013).
